Measurements taken from ChEMBL document CHEMBL4339196, “1H-Pyrrolo[3,2-b]pyridine GluN2B-Selective Negative Allosteric Modulators” (ACS Med Chem Lett, 2019).

Tests used:
[1] = Solubility of the compound at pH 7; format: physicochemical; conditions: buffer
[2] = Solubility of the compound at pH 2; format: physicochemical; conditions: buffer

Compound: O=C(Cn1c(=O)[nH]c2ncc(-c3cccc(C(F)(F)F)c3)cc21)NC1CC1
- solubility [1]: < 4 µM
- solubility [2]: < 4 µM
